The structures appear in SMILES notation.

A short description of the series: Toxicity against Artemia salina. The class given is organism-based. The note with it: in vivo, read-out: LD50 (the source's name).
In the case of `C[C@H]1CCCCCCCCCCCCCNC1` [HALICLORENSIN C], the LC50 turned out to be 2.1 mM. In the case of `C[C@H]1CCCCCCCN(CCCn2cc(-c3c(O)c(O)cc4ncccc34)c(-c3c(O)c(O)cc4ncccc34)c2)C1` [ISOHALITULIN] it was 0.9 mM; in that of `C[C@H]1CCCCCCCN2C=[N+](CCC2)C1` [HALICLORENSIN B], 2.2 mM.
